From patent publication US6403594B1, “Benzopyran derivatives” (Recordati, S.A. Chemical and Pharmaceutical Company, priority 1999, dated 2002)

How the values were obtained:
[1] = biological target: T1, α1a-adrenoceptor (recombinant) (Homo sapiens, UniProt P35348); test: Radioligand binding, cloned α1a-adrenoceptor ([3H]prazosin); settings: read-out: Affinity for recombinant α1a-adrenoceptor, cloned receptors (Ki)
T1 construct: expressed in transfected cells
T1 sequence (P35348 1-466): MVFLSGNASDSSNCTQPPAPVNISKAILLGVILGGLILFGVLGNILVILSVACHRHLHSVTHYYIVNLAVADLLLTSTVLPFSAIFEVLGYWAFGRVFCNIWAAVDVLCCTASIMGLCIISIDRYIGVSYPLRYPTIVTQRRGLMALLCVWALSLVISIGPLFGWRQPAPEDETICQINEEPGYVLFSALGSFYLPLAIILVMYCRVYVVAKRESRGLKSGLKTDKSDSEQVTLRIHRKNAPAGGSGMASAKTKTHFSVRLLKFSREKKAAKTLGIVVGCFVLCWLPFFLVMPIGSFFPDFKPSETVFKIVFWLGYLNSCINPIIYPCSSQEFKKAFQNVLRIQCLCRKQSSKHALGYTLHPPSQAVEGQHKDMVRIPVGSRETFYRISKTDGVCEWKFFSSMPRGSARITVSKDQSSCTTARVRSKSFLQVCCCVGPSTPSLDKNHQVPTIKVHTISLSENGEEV

[2] = biological target: T2, α1b-adrenoceptor (recombinant) (Homo sapiens, UniProt P35368); test: Radioligand binding, cloned α1b-adrenoceptor ([3H]prazosin); settings: read-out: Affinity for recombinant α1b-adrenoceptor, cloned receptors (Ki)
T2 construct: expressed in transfected cells
T2 sequence (P35368 1-520): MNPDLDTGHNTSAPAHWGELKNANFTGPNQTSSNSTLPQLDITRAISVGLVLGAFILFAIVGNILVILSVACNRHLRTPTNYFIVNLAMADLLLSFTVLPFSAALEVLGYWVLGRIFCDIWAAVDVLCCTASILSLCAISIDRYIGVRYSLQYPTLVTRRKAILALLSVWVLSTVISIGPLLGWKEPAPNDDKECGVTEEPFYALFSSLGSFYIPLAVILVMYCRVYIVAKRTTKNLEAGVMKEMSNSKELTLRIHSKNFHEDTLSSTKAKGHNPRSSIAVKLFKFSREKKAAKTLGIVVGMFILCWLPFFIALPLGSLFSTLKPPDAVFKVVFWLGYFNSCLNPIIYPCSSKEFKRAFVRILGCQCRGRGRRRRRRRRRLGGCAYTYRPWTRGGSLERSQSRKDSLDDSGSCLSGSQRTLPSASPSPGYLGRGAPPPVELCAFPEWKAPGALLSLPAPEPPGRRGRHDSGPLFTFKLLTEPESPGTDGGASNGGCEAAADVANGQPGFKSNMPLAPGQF

[3] = biological target: T3, 5HT1A-serotoninergic receptor (Homo sapiens, UniProt P08908); test: Radioligand binding, cloned 5-HT1A-serotoninergic receptor in HeLa membranes ([3H]8-OH-DPAT); design: expressed in transfected cells; host or cells: HeLa; settings: cloned human 5-HT1A receptor in HeLa membranes, mean Ki, read-out: Affinity for 5-HT1A receptor, cloned receptors (Ki)
T3 sequence (P08908 1-422): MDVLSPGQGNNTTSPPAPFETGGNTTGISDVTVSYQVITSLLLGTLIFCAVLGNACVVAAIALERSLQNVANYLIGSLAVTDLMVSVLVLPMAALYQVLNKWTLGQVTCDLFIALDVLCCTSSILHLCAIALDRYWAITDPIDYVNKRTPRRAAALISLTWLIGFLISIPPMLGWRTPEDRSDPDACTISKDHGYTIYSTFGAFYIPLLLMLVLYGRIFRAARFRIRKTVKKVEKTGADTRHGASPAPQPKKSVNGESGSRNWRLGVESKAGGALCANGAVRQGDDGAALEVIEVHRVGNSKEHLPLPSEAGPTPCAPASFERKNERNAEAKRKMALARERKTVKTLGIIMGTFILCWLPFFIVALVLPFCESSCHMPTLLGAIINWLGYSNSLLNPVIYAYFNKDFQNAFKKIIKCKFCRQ

Row | Structure (SMILES) | Ki [1] | Ki [2] | Ki [3]
1 | CCOC(=O)c1oc2c(C(=O)NCCCN3CCN(c4cc(Cl)ccc4OC)CC3)cccc2c(=O)c1C [Example 4, 2-Ethoxycarbonyl-8-{3-[4-(5-chloro-2-methoxyphenyl)-1-piperazinyl]-propylcarbamoyl}-3-methyl-4-oxo-4H-1-benzopyran] | 0.21 nM | 0.08 nM | 15.2 nM
2 | COc1ccc(Cl)cc1N1CCN(CCCNC(=O)c2cccc3c(=O)c(C)c(C(N)=O)oc23)CC1 [Example 1, 2-Carbamoyl-8-{3-[4-(5-chloro-2-methoxyphenyl)-1-piperazinyl]-propylcarbamoyl}-3-methyl-4-oxo-4H-1-benzopyran] | 2.4 nM | 2.62 nM | 17.2 nM
